This note sets out measurements from patent publication US20160251403A1, “PEPTIDE COMBINATIONS AND USES THEREOF IN TREATING DUST MITE ALLERGY” (ALK-ABELLO A/S, priority 2013, published 2016).

No end group written: not given here. Bounds are passed on as bounds.

One data set deals with DRB1_0901 (Homo sapiens, UniProt P01903+P01911, A100R/A103E/D57H/D86V/F55Y/F60I/F76Y/I96F/K127E/L162R/M171V/P40D/Q125H/Q99R/R33Q/R42F/S133A/S66N/T210M/V115G/W38K/Y107V/Y59G/Y89S). The data set can be described thus: Competitive MHC class II binding assay, DRB1_0901.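 Note: displacement of a radiolabeled probe peptide from purified HLA class II protein, bound counts read after two to four days incubation, six concentrations spanning 100,000-fold, unlabeled probe as reference.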
The target in a further data set is DRB1_0802 (Homo sapiens, UniProt P01903+P01911, A100R/A103L/A169T/F76Y/H45Y/I96F/K41T/L162R/M171V/P40S/Q125H/Q178H/Q39Y/Q99D/R218S/R42G/S66Y/V115G/W38E). The data set can be described thus: Competitive MHC class II binding assay, DRB1_0802.
The target in the next data set is DQA10101-DQB10501 (Homo sapiens, UniProt P01909+P01920, A157S/A45G/A70V/C70R/D89V/E106S/E118A/E183D/E77G/F83G/G63E/H151Q/H199R/H252R/H253Q/I129T/I235V/I88M/INS77G/K197Q/L107V/L117V/L119Y/L178F/L71W/L74F/L85Q/L91A/L98M/M46L/N214S/P87R/Q116E/Q256R/Q57E/Q76K/R102G/R240Q/R75S/R78G/S102Y/S185I/S41F/S97I/T103A/T109R/T121G/T122I/T172A/T86R/V148I/V68A/V73E/Y34C/Y58G/Y62H). As to the kind of experiment: Competitive MHC class II binding assay, DQA10101-DQB10501. The settings on record: positive binding at cutoff 1000 nM; read-out: HLA-DQA10101-DQB10501.

For a further data set, the target named is DRB1_0401 (Homo sapiens, UniProt P01903+P01911, A100K/A169T/F76Y/I96L/K127E/L162R/M171V/N62H/P40V/Q125Y/R42H/S133A/S149N/S66Y/V115G/V209L/W38E). The data set can be described thus: Competitive MHC class II binding assay, DRB1_0401.
Another data set has as its target DRB1_0101 (Homo sapiens, UniProt P01903+P01911, A100R/D57E/F55L/F60I/F76Y/I96L/L162R/M171V/P40L/Q125E/R42F/V115G/Y59C). The data set can be described thus: Competitive MHC class II binding assay, DRB1_0101.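 Note: competition against a radiolabeled probe peptide (0.1–1 nM) for purified HLA class II protein over 2–4 days, bound counts read after antibody capture, six competitor levels across 100,000-fold.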
In the next data set the target is DRB1_0405 (Homo sapiens, UniProt P01903+P01911, A100R/A169T/D86S/F76Y/I96L/K127E/L162R/M171V/N62H/P40V/Q125Y/R42H/S133A/S149N/S66Y/V115G/V209L/W38E). The data set can be described thus: Competitive MHC class II binding assay, DRB1_0405.
A further data set deals with DRB1_1501 (Homo sapiens, UniProt P01903+P01911). As to the kind of experiment: Competitive MHC class II binding assay, DRB1_1501.
The target of a further data set is DRB1_0701 (Homo sapiens, UniProt P01903+P01911, A100R/A102G/A103Q/D57E/D86V/E43K/F76Y/K127E/L162R/M171V/P40G/Q125H/Q99D/R33Q/R42Y/R54Q/S133A/S66F/T210M/V115G/Y107V/Y59L/Y89S). The data set can be described thus: Competitive MHC class II binding assay, DRB1_0701.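 Note: displacement of a radiolabeled reference peptide from purified HLA class II protein, with complex-bound radioactivity counted after 2–4 days of incubation and six concentrations spanning a 100,000-fold range.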
A further data set concerns the target DRB1_1302 (Homo sapiens, UniProt P01903+P01911, A100E/A169T/K41T/L162R/M171V/P40S/Q125H/Q178H/Q39Y/Q99D/R42S/S66N/T262R/V115G/W38E/Y61H). The data set can be described thus: Competitive MHC class II binding assay, DRB1_1302.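 Note: purified HLA class II protein incubated two to four days with a radiolabeled reference binder and test peptide at six concentrations over a 100,000-fold range, complex-bound radioactivity counted.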
The target in a further data set is T1, DPA10103-DPB10201 (Homo sapiens, UniProt P04440+P20036, A65V/A84D/A85E/K98E).
T1 sequence (P20036 29-260): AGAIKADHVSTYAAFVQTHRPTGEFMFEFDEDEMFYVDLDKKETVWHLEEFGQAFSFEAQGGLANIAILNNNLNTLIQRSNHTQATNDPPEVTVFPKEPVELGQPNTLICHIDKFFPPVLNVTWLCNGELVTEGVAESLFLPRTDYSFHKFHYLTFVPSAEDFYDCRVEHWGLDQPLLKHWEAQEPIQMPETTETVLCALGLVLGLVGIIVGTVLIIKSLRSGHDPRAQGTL
T1 sequence (P04440 30-258 A65V/A84D/A85E/K98E): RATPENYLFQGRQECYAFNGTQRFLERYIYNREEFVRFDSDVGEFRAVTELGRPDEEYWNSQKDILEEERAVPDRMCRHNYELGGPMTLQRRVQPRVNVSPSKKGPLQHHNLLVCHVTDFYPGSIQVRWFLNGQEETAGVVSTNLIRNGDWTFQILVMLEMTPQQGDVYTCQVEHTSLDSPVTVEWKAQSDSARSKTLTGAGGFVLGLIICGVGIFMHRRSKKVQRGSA
As to the kind of experiment: Competitive MHC class II binding assay, DPA10103-DPB10201.

In the next data set the target is DRB4_0101 (Homo sapiens, UniProt P01903+P13762, G164S). The data set can be described thus: Competitive MHC class II binding assay, DRB4_0101.
For the next data set, the target named is DRB3_0202 (Homo sapiens, UniProt P01903+P79483, A212P/D57E/F66Y/L67A/R103Q/R218S/R40L/S89Y/T80R/V86D/Y55F/Y59H). As to the kind of experiment: Competitive MHC class II binding assay, DRB3_0202.
In the next data set the target is DQA10501-DQB10201 (Homo sapiens, UniProt P01909+P01920, A45G/A70V/D89A/E106A/E77G/E98D/H199R/L107V/N214S/P84L/P87L/T103K/T109R/T172A/T60S/V78E/V99I/Y58L/Y62S/Y69I/Y79F). The data set can be described thus: Competitive MHC class II binding assay, DQA10501-DQB10201.
The target of another data set is T2, DPA10103-DPB10301 (Homo sapiens, UniProt P04440+P20036, A65V/A84D/A85E/E86D/F38Y/G113D/G114E/G40L/I94L/L37V/M105V/M116V/P115A/R125K/T199I).
T2 sequence (P20036 29-260): T1 sequence (P20036 29-260)
T2 sequence (P04440 30-258 L37V/F38Y/G40L/A65V/A84D/A85E/E86D/I94L/M105V/G113D/G114E/P115A/M116V/R125K/T199I/V234M): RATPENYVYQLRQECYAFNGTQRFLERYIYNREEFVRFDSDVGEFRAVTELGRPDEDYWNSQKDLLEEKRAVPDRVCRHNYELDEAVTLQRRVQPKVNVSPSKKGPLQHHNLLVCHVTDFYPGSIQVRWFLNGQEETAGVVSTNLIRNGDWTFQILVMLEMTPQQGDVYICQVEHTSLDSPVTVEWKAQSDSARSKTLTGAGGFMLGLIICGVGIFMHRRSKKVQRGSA
As to the kind of experiment: Competitive MHC class II binding assay, DPA10103-DPB10301.

Another data set concerns the target DRB5_0101 (Homo sapiens, UniProt P01903+Q30154). As to the kind of experiment: Competitive MHC class II binding assay, DRB5_0101.
A short description of data set [1]: Solubility of peptides in aqueous solutions at different pH (visual inspection, OD, HPLC). It counts as physicochemical. The settings on record: Table 11a; evaluated by visual inspection. The text has this: This example describes modifications of parent peptides to improve the aqueous solubility, in particular to increase the solubility in an aqueous solution having pH in a physiologically acceptable range, e.g. from 6 to 8. Solubility is closely related to the ratio between hydrophilic and hydrophobic amino acid residues and the net charge state of the peptide. Peptides have zero net charge at pH=pI, and would be expected to show the lowest solubility at this pH. […] The solubility of these peptides was increased at pH values outside the physiological range (data not shown).
Peptides were tested for their ability to dissolve in aqueous solutions at different pH values. In short, each of the peptides were dissolved in water (pH about 5-6), hydrochloride solution at pH 2 (10 mM HCl), acetate buffer with pH 5 (20 mM acetate and 140 mM sodium chloride), phosphate buffer with pH 7 (20 mM phosphate and 140 mM sodium chloride) or bistrispropate buffer with pH 9 (20 mM bitrispropane and 140 mM sodium chloride, respectively, to produce a final molar concentration of the peptide of about 0.25 mM or 1 mM. Optionally, about 20% DMSO may be part of the solution. For comparison reasons, peptides were also dissolved in acetonitrile or DMSO. The solutions were inspected visually before and after centrifugation for turbidity, presence of particles/aggregates. In addition, presence of turbidity/particles/aggregates were detected by optical density (OD), but might also be detected by size-exclusion chromatography. Sub-visual particles may also be detected by dynamic light scattering (DLS) analysis. The solubility and stability of each peptide were also investigated using HPLC, e.g. RP-HPLC. For example, each of the solutions were injected onto the HPLC and the peak height or peak area of each of the peptides were compared to the corresponding peptide of a chromatogram of peptides dissolved in acetonitrile or DMSO—as peptides were assumed to be fully dissolved and stable in these solvents.

For another data set, the target named is DRB3_0101 (Homo sapiens, UniProt P01903+P79483). The data set can be described thus: Competitive MHC class II binding assay, DRB3_0101.
The target in a further data set is DRB1_0301 (Homo sapiens, UniProt P01903+P01911, A100K/A102G/A103R/A169T/F55Y/I96L/K41T/L162R/M171V/P40S/Q125H/Q178H/Q39Y/R42S/S66N/T106N/T262R/W38E/Y61H). The data set can be described thus: Competitive MHC class II binding assay, DRB1_0301.
Another data set has as its target DRB1_1101 (Homo sapiens, UniProt P01903+P01911, A100R/A169T/A87E/I96F/K41T/L162R/M171V/P40S/Q125H/Q178H/Q39Y/Q99D/R42S/S66Y/T262R/V115G/W38E). The data set can be described thus: Competitive MHC class II binding assay, DRB1_1101.

As to ATESAYLAYRNTSLD [pep-022], the IC50 at DRB1_0901, at DRB1_0802, at DQA10101-DQB10501, at DRB1_0401, on DRB1_0101 and at DRB1_0405 was < 1 µM throughout. The IC50 at DRB1_1501 and on DRB1_0701 was < 1 µM throughout.
Regarding HRGKPFQLEAVFEANQNTKT [pep-091], the IC50 on DRB1_1302, on DRB1_0901, on DRB1_0802, on DPA10103-DPB10201, on DQA10101-DQB10501 and at DRB1_0101 was < 1 µM in each case. Besides, the IC50 at DRB1_0405, at DRB4_0101, on DRB3_0202 and on DQA10501-DQB10201 was < 1 µM throughout.
For KGQQYDIKYTWNVPKIA [pep-126], the IC50 on DRB1_1302, at DRB1_0901, at DRB1_0802, at DPA10103-DPB10301, on DQA10101-DQB10501 and at DRB5_0101 was < 1 µM in each case. Further, the IC50 on DRB1_0101, on DRB3_0202 and at DRB1_0701 was < 1 µM throughout. In addition, the “Solubility at pH 7” value in data set [1] is listed as “Clear”.
Regarding KSENVVVTVKLVGDNGVLAS [pep-109], the IC50 on DRB1_1302, at DRB3_0101, at DRB1_0802, on DRB1_0401, at DRB1_0301 and at DRB1_1101 was < 1 µM in each case. Further, the IC50 on DRB4_0101 is < 1 µM.
Consider QESYYRYVAREQSSRRPNAQ [pep-050], for which the IC50 at DPA10103-DPB10301, at DRB5_0101, at DRB1_0401, on DRB1_0301 and at DRB1_1101 was < 1 µM each time.
Take “RGLKQMKRVGDANV [HDM35A, reference compound]”: the IC50 at DRB1_0802, on DRB1_1101 and at DRB1_0101 was < 1 µM throughout.
For the sequence “SYYRYVAREQS [HDM205, reference compound]”, the IC50 on DRB1_1302, at DRB1_0901, at DRB1_0802, at DRB1_0401, on DRB1_1101 and at DRB1_0405 was < 1 µM each time. The IC50 on DRB4_0101, on DRB1_1501 and on DRB1_0701 was < 1 µM throughout.
Turning to VQESYYRYVAREQSSRRPNAQ [pep-124], the IC50 on DRB1_0802, at DPA10103-DPB10301, on DPA10103-DPB10201, on DRB5_0101, on DRB1_1101 and at DRB1_0701 was < 1 µM in each case.
